Data on 11 compounds can be found in patent US20230139171A1 (SITA Information Networking Computing UK Limited, priority 2019, published 2023).

Format in all cases: cell-based
In one test the target is T1, human TLR7 (Homo sapiens, UniProt Q9NYK1).
T1 construct: host or cells: HEK-Blue cells
T1 sequence (Q9NYK1 27-1049): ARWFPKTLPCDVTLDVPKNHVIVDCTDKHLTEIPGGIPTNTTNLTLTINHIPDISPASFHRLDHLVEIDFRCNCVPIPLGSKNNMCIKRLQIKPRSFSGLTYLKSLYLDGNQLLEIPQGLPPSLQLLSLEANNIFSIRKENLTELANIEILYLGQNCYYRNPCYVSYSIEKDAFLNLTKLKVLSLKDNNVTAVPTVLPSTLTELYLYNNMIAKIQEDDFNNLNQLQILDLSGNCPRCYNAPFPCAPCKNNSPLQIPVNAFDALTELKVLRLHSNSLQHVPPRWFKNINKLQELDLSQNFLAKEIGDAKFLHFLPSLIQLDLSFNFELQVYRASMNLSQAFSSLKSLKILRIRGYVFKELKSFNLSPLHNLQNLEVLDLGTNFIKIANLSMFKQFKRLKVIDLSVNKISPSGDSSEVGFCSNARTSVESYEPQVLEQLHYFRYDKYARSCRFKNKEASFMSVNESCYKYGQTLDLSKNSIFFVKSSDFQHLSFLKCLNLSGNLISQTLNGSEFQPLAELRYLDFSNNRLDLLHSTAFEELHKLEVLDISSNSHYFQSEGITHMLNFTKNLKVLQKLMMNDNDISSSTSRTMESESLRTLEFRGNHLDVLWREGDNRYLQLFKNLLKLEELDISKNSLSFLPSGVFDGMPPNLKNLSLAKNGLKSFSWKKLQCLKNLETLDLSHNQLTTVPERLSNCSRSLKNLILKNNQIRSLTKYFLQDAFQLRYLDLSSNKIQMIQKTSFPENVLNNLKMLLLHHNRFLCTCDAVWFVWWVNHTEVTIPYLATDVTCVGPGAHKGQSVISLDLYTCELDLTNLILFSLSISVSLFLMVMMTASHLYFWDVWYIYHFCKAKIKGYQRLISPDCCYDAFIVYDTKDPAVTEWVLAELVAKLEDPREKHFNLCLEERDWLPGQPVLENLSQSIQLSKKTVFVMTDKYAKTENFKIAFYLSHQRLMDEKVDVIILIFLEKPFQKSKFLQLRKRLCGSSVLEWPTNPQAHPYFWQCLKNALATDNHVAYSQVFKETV
In words: TLR7 inhibition reporter assay (HEK-Blue cells, SEAP reporter, gardiquimod stimulation). The following applies: HEK-Blue cells overexpressing human TLR7, SEAP reporter, gardiquimod 7.5 μM; read-out: TLR7 IC50. The essentials:
(§1)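 Agonists used: gardiquimod 7.5 μM (TLR7), R848 15.9 μM (TLR8), ODN2006 5 nM (TLR9), added after 30 min room-temperature compound pre-treatment (0.05 nM–50 μM) of receptor-overexpressing HEK-Blue cells. SEAP reporter (NF-κB/AP-1 driven) read after 22 h at 37 °C; inhibition scaled between agonist+DMSO and reference-inhibitor wells.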

For the next test, the target named is T2, human TLR8 (Homo sapiens, UniProt Q9NR97).
T2 construct: host or cells: HEK-Blue cells
T2 sequence (Q9NR97 27-1041): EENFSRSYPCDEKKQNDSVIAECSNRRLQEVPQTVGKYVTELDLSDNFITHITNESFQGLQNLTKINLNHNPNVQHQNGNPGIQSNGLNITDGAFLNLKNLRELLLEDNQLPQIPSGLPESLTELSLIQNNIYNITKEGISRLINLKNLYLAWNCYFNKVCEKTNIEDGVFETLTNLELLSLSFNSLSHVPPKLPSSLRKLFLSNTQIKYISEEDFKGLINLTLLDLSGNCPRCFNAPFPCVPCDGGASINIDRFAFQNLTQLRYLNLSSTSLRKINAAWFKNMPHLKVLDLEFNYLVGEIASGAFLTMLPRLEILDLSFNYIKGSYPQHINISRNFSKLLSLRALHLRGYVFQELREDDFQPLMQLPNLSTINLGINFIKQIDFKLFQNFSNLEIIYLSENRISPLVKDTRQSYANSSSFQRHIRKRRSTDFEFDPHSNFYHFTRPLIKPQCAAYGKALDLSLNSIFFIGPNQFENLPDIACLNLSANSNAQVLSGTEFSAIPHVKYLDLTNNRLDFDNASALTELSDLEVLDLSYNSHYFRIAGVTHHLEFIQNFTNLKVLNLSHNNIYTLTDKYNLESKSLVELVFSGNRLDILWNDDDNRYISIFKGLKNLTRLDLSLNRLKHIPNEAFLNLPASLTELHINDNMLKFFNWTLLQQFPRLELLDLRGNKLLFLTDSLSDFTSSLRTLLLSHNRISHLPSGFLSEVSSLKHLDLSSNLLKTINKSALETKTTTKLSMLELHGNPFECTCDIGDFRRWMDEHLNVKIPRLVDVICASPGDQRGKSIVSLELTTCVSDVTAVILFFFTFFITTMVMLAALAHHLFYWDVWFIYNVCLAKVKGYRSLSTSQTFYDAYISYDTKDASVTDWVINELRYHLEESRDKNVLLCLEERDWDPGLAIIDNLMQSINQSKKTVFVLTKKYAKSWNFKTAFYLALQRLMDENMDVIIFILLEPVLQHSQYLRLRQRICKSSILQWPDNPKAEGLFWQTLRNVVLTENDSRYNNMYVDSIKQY
The test can be described thus: TLR8 inhibition reporter assay (HEK-Blue cells, SEAP reporter, R848 stimulation). The following applies: HEK-Blue cells overexpressing human TLR8, SEAP reporter, R848 15.9 μM; read-out: TLR8 IC50. The method in brief: as §1

In the next test the target is T3, human TLR9 (Homo sapiens, UniProt Q9NR96).
T3 construct: host or cells: HEK-Blue cells
T3 sequence (Q9NR96 26-1032): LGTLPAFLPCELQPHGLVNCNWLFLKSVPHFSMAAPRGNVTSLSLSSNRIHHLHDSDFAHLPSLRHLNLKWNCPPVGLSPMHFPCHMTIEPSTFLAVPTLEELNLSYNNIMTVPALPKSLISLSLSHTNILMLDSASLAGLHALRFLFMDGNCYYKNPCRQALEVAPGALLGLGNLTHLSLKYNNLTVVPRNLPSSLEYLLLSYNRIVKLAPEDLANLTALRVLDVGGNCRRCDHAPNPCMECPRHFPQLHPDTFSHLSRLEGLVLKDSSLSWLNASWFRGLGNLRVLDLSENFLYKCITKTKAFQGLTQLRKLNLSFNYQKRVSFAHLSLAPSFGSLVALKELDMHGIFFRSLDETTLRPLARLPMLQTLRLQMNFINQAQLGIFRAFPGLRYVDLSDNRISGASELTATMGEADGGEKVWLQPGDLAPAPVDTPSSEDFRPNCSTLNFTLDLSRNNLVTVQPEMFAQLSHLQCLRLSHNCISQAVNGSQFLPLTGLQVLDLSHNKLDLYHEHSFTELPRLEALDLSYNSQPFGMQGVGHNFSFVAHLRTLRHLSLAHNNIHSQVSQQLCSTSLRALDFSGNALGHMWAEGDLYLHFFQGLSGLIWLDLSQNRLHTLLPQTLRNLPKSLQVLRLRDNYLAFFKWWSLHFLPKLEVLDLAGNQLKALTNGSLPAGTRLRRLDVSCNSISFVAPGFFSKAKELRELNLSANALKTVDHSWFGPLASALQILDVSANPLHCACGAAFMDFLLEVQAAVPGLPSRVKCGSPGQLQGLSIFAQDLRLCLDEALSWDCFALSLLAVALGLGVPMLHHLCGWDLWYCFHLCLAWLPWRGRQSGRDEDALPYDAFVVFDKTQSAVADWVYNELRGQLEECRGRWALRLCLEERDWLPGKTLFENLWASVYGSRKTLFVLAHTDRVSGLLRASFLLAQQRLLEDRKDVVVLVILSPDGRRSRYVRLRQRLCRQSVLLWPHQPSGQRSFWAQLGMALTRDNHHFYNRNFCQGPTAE
The test can be described thus: TLR9 inhibition reporter assay (HEK-Blue cells, SEAP reporter, ODN2006 stimulation). The following applies: HEK-Blue cells overexpressing human TLR9, SEAP reporter, ODN2006 5 nM. The essentials:
as §1

Regarding `CCc1c(-c2cc(OC)c3ncnn3c2)[nH]c2sc(C3CCC(N4CC5(COC5)C4)CC3)nc12` (single isomer, unassigned) [Example 270, 6-(4-(6-ethyl-5-(8-methoxy-[1,2,4]triazolo[1,5-a]pyridin-6-yl)-4H-pyrrolo[3,2-d]thiazol-2-yl)cyclohexyl)-2-oxa-6-azaspiro[3.3]heptane], the IC50 at human TLR7 was found to be 8.99 nM; at human TLR8, 14 nM; against human TLR9 it was 3460 nM.
In the same order, the values of `CCc1c(-c2cc(OC)c3ncnn3c2)[nH]c2sc(C3CCC(NC4COC4)CC3)nc12` (single isomer, unassigned) [Example 271, N-(4-(6-ethyl-5-(8-methoxy-[1,2,4]triazolo[1,5-a]pyridin-6-yl)-4H-pyrrolo[3,2-d]thiazol-2-yl)cyclohexyl) oxetan-3-amine] are 0.96 nM, 1.94 nM and 4560 nM.
Turning to `CCc1c(-c2cc(OC)c3ncnn3c2)[nH]c2sc(C3CCC(NC4COC4)CC3)nc12` (single isomer, unassigned) [Example 272, N-(4-(6-ethyl-5-(8-methoxy-[1,2,4]triazolo[1,5-a]pyridin-6-yl)-4H-pyrrolo[3,2-d]thiazol-2-yl)cyclohexyl) oxetan-3-amine], the IC50 was 137 nM at human TLR7, 122 nM at human TLR8 and more than 50000 nM against human TLR9.
Taken in the same sequence, the figures for `COc1cc(-c2[nH]c3sc(C4CCC(NC5COC5)CC4)nc3c2C)cn2ncnc12` (single isomer, unassigned) [Example 273, N-(4-(5-(8-methoxy-[1,2,4]triazolo[1,5-a]pyridin-6-yl)-6-methyl-4H-pyrrolo[3,2-d]thiazol-2-yl)cyclohexyl)oxetan-3-amine] were 13.7 nM, 26.5 nM and 5550 nM.
`COc1cc(-c2[nH]c3sc(C4CCC(N5CCNC(=O)C5)CC4)nc3c2C)cn2ncnc12` (single isomer, unassigned) [Example 275, 4-(4-(5-(8-methoxy-[1,2,4]triazolo[1,5-a]pyridin-6-yl)-6-methyl-4H-pyrrolo[3,2-d]thiazol-2-yl)cyclohexyl)piperazin-2-one]: the IC50 was 413 nM at human TLR7, 515 nM at human TLR8 and more than 50000 nM on human TLR9.
As to `COc1cc(-c2[nH]c3sc(C4CCC(N5CCNC(=O)C5)CC4)nc3c2C)cn2ncnc12` (single isomer, unassigned) [Example 276, 4-(4-(5-(8-methoxy-[1,2,4]triazolo[1,5-a]pyridin-6-yl)-6-methyl-4H-pyrrolo[3,2-d]thiazol-2-yl)cyclohexyl)piperazin-2-one], the results for the half-maximal inhibitory concentration (IC50) at human TLR7, on human TLR8 and against human TLR9 were 975 nM, more than 3130 nM and more than 50000 nM, respectively.
Consider `Cc1c(-c2[nH]c3sc(C(=O)NC4CCC(N(C)C)CC4)nc3c2C(C)C)cn2ncnc2c1C` (single isomer, unassigned) [Example 368, 5-(7,8-dimethyl-[1,2,4]triazolo[1,5-a]pyridin-6-yl)-N-(4-(dimethylamino)cyclohexyl)-6-isopropyl-4H-pyrrolo[3,2-d]thiazole-2-carboxamide], for which the results for the IC50 on human TLR7, at human TLR8 and at human TLR9 were 10.5 nM, 28.1 nM and 5460 nM, respectively.
Taken in the same sequence, the figures for `Cc1c(-c2[nH]c3sc(C(=O)NC4CCC(N(C)C)CC4)nc3c2C(C)C)cn2ncnc2c1C` (single isomer, unassigned) [Example 369, 5-(7,8-dimethyl-[1,2,4]triazolo[1,5-a]pyridin-6-yl)-N-(4-(dimethylamino)cyclohexyl)-6-isopropyl-4H-pyrrolo[3,2-d]thiazole-2-carboxamide] were 18 nM, 33 nM and 46900 nM.
As for `COc1cc(-c2[nH]c3sc(C4CCNCC4)nc3c2C(C)C)cn2ncnc12` [Example 1, 6-isopropyl-5-(8-methoxy-[1,2,4]triazolo[1,5-a]pyridin-6-yl)-2-(piperidin-4-yl)-4H-pyrrolo[3,2-d]thiazole], the results for the IC50 at human TLR7, on human TLR8 and against human TLR9 were 2.01 nM, 8.14 nM and 760 nM, respectively.
As to `Cc1cc(-c2[nH]c3sc(C4CCNCC4)nc3c2C(C)C)cn2ncnc12` [Example 2, 6-isopropyl-5-(8-methyl-[1,2,4]triazolo[1,5-a]pyridin-6-yl)-2-(piperidin-4-yl)-4H-pyrrolo[3,2-d]thiazole], the IC50 on human TLR7 is 2.27 nM; at human TLR8, 5.82 nM; against human TLR9, 6560 nM.
Taken in the same sequence, the figures for `CC(C)c1c(-c2cn(C)c3ncccc23)[nH]c2sc(C3CCNCC3)nc12` [Example 3, 6-isopropyl-5-(1-methyl-1H-pyrrolo[2,3-b]pyridin-3-yl)-2-(piperidin-4-yl)-4H-pyrrolo[3,2-d]thiazole] were 1.84 nM, 3.05 nM and 18500 nM.
